Test results: patent US20090022694A1, “SIRT1 INHIBITION” (priority 2005, published 2009)
pIC50: −log10 of the molar value.

Molecular target: T1, SirT1 (Homo sapiens, UniProt Q96EB6)
T1 sequence (Q96EB6 1-747): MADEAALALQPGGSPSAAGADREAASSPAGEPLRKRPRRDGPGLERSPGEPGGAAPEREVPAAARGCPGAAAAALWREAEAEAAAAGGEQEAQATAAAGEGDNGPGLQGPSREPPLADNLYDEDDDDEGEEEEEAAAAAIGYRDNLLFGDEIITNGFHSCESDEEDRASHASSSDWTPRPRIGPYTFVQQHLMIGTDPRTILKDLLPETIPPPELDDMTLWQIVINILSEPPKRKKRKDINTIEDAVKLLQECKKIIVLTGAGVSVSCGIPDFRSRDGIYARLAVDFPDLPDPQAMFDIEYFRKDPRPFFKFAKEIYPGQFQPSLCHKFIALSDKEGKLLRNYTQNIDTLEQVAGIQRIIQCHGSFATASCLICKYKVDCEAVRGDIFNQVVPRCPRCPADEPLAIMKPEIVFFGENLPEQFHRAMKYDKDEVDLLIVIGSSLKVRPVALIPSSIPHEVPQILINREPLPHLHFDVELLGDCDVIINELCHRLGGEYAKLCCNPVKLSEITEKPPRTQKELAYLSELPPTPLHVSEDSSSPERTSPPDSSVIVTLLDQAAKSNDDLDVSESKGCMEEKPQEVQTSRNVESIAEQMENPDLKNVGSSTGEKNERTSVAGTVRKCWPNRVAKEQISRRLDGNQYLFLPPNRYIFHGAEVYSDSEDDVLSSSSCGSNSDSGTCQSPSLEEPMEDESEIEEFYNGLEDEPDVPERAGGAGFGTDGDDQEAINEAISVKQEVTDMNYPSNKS
Assay: SirT1 enzymatic assay, p53-382 Fluor-de-Lys (FdL)
Format: biochemical
Details: for pIC50: Table 1, exemplary compounds
Source text: The ability of a compound to inhibit SIRT1 can be evaluated in many ways. In some embodiments, interaction with, e.g., binding of, SIRT1 can be assayed in vitro. The reaction mixture can include a SIRT1 co-factor such as NAD and/or a NAD analog. In other embodiments, the ability of the compound to inhibit an enzymatic function, e.g., deacetylase activity of SIRT1, can be assayed in vitro. Assays can include determining the IC50 of the compound.
An exemplary assay method includes a multi-well format of the SirT1 enzymatic assay that is based on the commercial “Fluor-de-Lys” assay principle by Biomol, which is fluorogenic (www.biomol.com/store/Product_Data_PDFs/ak500.pdf). In this assay, deacetylation of the s-amino function of a lysyl residue is coupled to a fluorogenic development step that is dependent on the unblocked ε-amino functionality and generates fluorescent aminomethylcoumarin. Fluorescence can be read on a commercial […]. Standard enzymological analyses can be used to determine Ki.

Row | SMILES | activity against the SirT1 enzyme compared with the enantiomer (isomer with negative optical rotation vs enantiomer with positive optical rotation) | pIC50
1 | NC(=O)C1CCCc2c1[nH]c1ccc(Cl)cc21 (single isomer, unassigned) [isomer of compound 4 having a negative optical rotation, 6-Chloro-2,3,4,9-tetrahydro-1H-carbazole-1-carboxylic acid amide] | greater activity against the SirT1 enzyme | 
2 | O=C(O)C1CCCc2c1[nH]c1ccc(O)cc21 (stereo not shown) [Compound 54, 6-hydroxy-2,3,4,9-tetrahydro-1H-carbazole-1-carboxylic acid] |  | < 5.00
3 | NC(=O)C1NCCc2c1[nH]c1ccc(Cl)cc21 (stereo not shown) [Compound 56, 6-chloro-2,3,4,9-tetrahydro-1H-pyrido[3,4-b]indole-1-carboxamide] |  | < 5.00
4 | CC(=O)N1CCc2c([nH]c3ccc(Cl)cc23)C1C(N)=O (stereo not shown) [Compound 58, 2-acetyl-6-chloro-2,3,4,9-tetrahydro-1H-pyrido[3,4-b]indole-1-carboxamide] |  | < 5.00
